Literature values, collected in US20260262633A1, “BORDEAUX MIXTURE/ORGANOSULFUR FUNGICIDE NANO-SUSPENSION DISPERSION” (priority 2023, published 2026).

solubility in water: 1.06 µg/mL
Substance: basic copper sulfate
